Measured values as given in ChEMBL document CHEMBL4765228, “Indole-like Trk receptor antagonists” (Eur J Med Chem, 2016).

Key:
[1] = target: RAC-alpha serine/threonine-protein kinase (Homo sapiens) (UniProt P31749); assay: Inhibition of human AKT1 (104 to 408 residues) assessed as residual activity at 0.1 uM relative to control
[2] = target: Calcium/calmodulin-dependent protein kinase kinase 2 (Homo sapiens) (UniProt Q96RR4); assay: Inhibition of human CAMKK2 assessed as residual activity at 1 uM relative to control
Sequence of Calcium/calmodulin-dependent protein kinase kinase 2 (Homo sapiens) (Q96RR4 2-588 limits assumed): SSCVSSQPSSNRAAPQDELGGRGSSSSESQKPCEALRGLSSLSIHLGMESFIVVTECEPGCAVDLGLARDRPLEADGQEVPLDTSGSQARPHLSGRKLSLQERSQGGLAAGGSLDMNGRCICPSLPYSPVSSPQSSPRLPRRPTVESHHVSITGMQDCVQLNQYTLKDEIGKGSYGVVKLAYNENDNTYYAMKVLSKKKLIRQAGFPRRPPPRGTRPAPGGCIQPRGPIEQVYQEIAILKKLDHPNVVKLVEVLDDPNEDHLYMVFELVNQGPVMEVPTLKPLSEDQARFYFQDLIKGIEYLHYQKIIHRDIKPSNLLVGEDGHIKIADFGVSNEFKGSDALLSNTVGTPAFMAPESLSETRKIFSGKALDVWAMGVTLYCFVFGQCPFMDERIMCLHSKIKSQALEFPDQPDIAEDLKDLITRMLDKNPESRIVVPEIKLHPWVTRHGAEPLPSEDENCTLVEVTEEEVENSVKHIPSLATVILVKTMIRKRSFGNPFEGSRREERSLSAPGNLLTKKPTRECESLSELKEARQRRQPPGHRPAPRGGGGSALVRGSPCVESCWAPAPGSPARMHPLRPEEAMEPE

[3] = target: Serine/threonine-protein kinase Chk2 (Homo sapiens) (UniProt O96017); assay: Inhibition of human CHK2 assessed as residual activity at 0.1 uM relative to control
Sequence of Serine/threonine-protein kinase Chk2 (Homo sapiens) (O96017 whole entry, canonical isoform): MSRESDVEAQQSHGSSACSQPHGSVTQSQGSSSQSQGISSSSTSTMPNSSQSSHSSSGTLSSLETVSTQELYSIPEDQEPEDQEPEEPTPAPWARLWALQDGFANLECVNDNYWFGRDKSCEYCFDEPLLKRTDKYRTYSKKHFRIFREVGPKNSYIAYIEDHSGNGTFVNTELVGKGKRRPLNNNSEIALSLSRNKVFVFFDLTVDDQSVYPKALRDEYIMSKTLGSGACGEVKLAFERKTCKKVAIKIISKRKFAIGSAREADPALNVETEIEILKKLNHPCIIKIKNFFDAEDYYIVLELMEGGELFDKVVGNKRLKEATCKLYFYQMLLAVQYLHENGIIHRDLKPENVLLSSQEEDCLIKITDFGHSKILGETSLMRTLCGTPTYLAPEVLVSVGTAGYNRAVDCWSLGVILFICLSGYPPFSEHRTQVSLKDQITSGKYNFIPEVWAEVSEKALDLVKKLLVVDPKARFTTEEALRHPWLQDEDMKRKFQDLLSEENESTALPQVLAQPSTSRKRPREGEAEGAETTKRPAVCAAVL

[4] = target: Casein kinase I isoform delta (Homo sapiens) (UniProt P48730); assay: Inhibition of human CK1-delta assessed as residual activity at 1 uM relative to control
Sequence of Casein kinase I isoform delta (Homo sapiens) (P48730 whole entry, looked up, canonical isoform): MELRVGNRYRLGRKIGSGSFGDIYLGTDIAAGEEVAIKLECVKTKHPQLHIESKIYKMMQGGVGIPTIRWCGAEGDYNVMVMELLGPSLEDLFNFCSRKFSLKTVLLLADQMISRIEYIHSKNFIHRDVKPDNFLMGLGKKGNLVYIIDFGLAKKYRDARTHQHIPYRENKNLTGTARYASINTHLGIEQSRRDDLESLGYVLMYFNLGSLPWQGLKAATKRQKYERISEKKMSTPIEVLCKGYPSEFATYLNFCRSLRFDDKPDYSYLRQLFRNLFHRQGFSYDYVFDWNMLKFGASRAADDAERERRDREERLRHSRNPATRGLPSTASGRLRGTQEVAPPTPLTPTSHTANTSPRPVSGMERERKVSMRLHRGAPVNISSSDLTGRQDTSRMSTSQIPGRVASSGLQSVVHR

[5] = target: Dual specificity tyrosine-phosphorylation-regulated kinase 1A (Homo sapiens) (UniProt Q13627); assay: Inhibition of human DYRK1A assessed as residual activity at 1 uM relative to control
[6] = target: T1, Eukaryotic elongation factor 2 kinase (Homo sapiens) (UniProt O00418); assay: Inhibition of human EEF2K assessed as residual activity at 0.1 uM relative to control
T1 sequence (whole entry): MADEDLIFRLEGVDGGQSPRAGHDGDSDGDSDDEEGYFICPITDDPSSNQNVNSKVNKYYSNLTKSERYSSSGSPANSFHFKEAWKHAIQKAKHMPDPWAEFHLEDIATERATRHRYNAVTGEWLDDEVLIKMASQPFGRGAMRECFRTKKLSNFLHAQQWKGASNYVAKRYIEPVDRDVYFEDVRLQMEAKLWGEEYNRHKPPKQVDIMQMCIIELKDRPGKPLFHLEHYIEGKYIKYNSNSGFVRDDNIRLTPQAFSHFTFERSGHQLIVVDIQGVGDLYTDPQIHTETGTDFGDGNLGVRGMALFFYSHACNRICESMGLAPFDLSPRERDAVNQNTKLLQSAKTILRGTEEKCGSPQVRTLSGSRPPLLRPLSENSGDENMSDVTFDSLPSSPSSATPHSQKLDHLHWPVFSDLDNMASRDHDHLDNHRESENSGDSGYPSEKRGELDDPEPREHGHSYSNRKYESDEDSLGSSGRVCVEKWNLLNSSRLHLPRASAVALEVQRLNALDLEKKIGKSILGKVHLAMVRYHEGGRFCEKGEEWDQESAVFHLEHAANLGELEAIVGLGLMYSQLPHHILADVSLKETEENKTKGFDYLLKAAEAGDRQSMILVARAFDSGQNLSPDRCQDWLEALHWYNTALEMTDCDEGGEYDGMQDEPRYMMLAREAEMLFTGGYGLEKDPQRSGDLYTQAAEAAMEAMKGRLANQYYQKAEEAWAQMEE

[7] = target: Receptor tyrosine-protein kinase erbB-4 (Homo sapiens) (UniProt Q15303); assay: Inhibition of human ERBB4 assessed as residual activity at 1 uM relative to control
[8] = target: T2, Interleukin-1 receptor-associated kinase 4 (Homo sapiens) (UniProt Q9NWZ3); assay: Inhibition of human untagged IRAK4 assessed as residual activity at 1 uM relative to control
T2 sequence (whole entry): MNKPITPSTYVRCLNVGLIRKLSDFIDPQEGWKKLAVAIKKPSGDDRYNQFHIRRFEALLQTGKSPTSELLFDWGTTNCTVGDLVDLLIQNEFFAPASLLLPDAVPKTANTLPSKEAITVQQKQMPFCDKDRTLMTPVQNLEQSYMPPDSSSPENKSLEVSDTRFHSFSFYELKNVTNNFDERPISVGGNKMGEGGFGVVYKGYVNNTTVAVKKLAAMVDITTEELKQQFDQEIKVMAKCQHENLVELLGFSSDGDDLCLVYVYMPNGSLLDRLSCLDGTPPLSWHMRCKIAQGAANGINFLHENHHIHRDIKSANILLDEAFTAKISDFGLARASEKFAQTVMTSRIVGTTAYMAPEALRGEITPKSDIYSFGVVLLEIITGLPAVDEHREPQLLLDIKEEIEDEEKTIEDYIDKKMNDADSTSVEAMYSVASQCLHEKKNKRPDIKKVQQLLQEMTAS

[9] = target: Tyrosine-protein kinase Lck (Homo sapiens) (UniProt P06239); assay: Inhibition of human LCK assessed as residual activity at 0.1 uM relative to control
Sequence of Tyrosine-protein kinase Lck (Homo sapiens) (P06239 2-509 limits assumed): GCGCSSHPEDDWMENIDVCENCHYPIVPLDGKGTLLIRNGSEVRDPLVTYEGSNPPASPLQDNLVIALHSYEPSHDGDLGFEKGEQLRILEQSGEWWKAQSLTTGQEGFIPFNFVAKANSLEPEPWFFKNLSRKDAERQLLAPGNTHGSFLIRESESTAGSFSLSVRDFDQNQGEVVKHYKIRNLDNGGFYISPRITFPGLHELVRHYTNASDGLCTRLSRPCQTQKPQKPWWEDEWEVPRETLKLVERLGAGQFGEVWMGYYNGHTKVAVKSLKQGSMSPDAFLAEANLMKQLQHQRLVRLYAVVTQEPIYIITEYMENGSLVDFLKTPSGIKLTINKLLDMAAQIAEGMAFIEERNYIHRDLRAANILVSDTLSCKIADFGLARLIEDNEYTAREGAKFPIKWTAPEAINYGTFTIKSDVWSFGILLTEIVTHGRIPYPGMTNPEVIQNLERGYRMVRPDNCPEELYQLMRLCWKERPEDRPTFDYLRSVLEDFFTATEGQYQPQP

[10] = target: Myosin light chain kinase, smooth muscle (Homo sapiens) (UniProt Q15746); assay: Inhibition of human MYLK assessed as residual activity at 1 uM relative to control
[11] = target: Serine/threonine-protein kinase PAK 4 (Homo sapiens) (UniProt O96013); assay: Inhibition of human PAK4 assessed as residual activity at 0.1 uM relative to control
Sequence of Serine/threonine-protein kinase PAK 4 (Homo sapiens) (O96013 whole entry, looked up): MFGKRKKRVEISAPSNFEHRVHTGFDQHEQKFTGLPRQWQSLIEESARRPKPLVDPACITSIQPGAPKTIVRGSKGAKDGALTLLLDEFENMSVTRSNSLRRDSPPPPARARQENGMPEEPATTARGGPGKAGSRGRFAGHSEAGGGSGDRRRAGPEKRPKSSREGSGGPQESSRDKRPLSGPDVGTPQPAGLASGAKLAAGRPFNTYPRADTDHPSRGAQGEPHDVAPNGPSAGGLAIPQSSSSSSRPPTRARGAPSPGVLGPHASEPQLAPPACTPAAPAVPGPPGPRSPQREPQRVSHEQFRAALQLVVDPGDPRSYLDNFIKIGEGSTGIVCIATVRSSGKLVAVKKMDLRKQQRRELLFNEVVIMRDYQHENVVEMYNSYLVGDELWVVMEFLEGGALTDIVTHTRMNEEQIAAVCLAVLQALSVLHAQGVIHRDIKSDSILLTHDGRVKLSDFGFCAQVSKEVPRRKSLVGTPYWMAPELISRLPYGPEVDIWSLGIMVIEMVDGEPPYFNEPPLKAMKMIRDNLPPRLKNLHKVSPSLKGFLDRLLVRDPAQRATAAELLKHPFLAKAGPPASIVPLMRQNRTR

[12] = species: Homo sapiens; assay: Inhibition of human S6K assessed as residual activity at 0.1 uM relative to control
[13] = target: High affinity nerve growth factor receptor (Homo sapiens, UniProt P04629); assay: Inhibition of human TRKA assessed as residual activity at 1 uM relative to control
Sequence of High affinity nerve growth factor receptor (P04629 33-796 limits assumed): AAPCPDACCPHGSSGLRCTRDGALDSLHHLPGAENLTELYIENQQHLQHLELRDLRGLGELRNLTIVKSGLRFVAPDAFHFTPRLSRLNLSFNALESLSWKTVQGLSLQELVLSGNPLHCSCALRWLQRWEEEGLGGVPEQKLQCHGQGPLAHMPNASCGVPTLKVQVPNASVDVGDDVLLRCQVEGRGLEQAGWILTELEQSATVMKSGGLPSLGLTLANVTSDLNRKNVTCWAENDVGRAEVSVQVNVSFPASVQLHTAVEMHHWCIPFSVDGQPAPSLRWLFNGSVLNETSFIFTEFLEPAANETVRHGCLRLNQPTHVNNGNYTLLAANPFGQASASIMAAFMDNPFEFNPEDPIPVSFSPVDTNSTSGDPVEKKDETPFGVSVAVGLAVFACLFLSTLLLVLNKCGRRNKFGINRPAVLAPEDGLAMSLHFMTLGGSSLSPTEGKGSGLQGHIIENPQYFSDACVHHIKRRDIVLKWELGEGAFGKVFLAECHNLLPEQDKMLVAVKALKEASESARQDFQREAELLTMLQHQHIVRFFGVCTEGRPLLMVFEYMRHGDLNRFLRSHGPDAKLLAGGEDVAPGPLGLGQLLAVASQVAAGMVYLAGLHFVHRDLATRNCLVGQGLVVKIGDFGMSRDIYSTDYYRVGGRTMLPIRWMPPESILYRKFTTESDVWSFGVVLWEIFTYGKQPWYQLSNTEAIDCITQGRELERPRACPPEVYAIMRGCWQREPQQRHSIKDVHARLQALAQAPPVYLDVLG

[14] = target: T3, Dual specificity protein kinase TTK (Homo sapiens) (UniProt P33981); assay: Inhibition of human TTK assessed as residual activity at 0.1 uM relative to control
T3 sequence (whole entry): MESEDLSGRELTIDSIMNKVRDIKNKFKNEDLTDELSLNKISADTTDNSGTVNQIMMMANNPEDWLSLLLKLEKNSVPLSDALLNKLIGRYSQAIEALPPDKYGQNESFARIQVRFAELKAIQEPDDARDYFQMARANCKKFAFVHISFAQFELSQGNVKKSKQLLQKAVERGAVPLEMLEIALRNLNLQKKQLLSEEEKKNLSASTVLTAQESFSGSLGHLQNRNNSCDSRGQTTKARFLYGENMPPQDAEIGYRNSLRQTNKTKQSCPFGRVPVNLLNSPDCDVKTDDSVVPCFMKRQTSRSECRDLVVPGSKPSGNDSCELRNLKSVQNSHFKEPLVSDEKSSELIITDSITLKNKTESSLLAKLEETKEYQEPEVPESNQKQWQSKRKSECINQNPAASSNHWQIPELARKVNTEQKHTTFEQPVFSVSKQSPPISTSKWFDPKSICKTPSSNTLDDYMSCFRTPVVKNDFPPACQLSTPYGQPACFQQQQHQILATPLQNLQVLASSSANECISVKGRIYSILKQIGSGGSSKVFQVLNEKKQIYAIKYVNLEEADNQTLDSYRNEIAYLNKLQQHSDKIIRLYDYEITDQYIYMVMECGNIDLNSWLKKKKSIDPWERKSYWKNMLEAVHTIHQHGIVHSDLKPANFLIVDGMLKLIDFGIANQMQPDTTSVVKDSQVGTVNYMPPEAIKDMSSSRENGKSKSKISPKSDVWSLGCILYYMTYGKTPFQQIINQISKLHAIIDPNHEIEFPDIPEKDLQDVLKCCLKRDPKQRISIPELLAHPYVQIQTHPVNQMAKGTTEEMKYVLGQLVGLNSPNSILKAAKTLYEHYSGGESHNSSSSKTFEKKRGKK

Sequence of RAC-alpha serine/threonine-protein kinase (Homo sapiens) (P31749 whole entry, the tested form may be a part): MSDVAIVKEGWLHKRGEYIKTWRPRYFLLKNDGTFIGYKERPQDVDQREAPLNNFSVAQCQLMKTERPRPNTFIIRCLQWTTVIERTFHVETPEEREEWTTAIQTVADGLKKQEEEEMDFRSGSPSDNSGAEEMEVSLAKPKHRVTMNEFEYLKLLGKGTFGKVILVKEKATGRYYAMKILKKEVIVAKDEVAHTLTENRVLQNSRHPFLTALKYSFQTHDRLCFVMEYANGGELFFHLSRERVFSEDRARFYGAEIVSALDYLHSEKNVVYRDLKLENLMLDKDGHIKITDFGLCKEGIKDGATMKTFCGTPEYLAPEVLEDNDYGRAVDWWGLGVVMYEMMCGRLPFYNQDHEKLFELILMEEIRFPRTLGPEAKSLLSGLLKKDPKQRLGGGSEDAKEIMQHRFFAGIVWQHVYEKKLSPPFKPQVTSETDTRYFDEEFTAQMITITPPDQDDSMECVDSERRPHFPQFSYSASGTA

| Activity [1] [%] | Activity [2] [%] | Activity [3] [%] | Activity [4] [%] | Activity [5] [%] | Activity [6] [%] | Activity [7] [%] | Activity [8] [%] | Activity [9] [%] | Activity [10] [%] | Activity [11] [%] | Activity [12] [%] | Activity [13] [%] | Activity [14] [%] | Structure (SMILES) |
| --- | --- | --- | --- | --- | --- | --- | --- | --- | --- | --- | --- | --- | --- | --- |
| 93 | 50 | 93 | 91 | 95 | 103 | 42 | 37 | 45 | 90 | 84 | 96 | 3 | 99 | CNS(=O)(=O)c1ccc2c(c1)/C(=C/c1cn(C)c3ccc(OC)cc13)C(=O)N2 |
| 115 | 31 | 59 | 79 | 96 | 107 | 60 | 9 | 72 | 83 | 93 | 88 | 0 | 101 | COc1ccc2[nH]cc(/C=C3\C(=O)Nc4ccc(S(N)(=O)=O)cc43)c2c1 |
| 101 | 30 | 100 | 86 | 94 | 99 | 85 | 83 | 81 | 91 | 96 | 87 | 6 | 102 | COc1ccc2c(c1)c(/C=C1\C(=O)Nc3ccc(S(=O)(=O)N(C)C)cc31)cn2C |
| 105 | 25 | 94 | 87 | 101 | 97 | 95 | 52 | 62 | 84 | 95 | 87 | 2 | 104 | CN(C)S(=O)(=O)c1ccc2c(c1)/C(=C/c1cn(C)c3ccc(O)cc13)C(=O)N2 |
| 92 | 25 | 9 | 82 | 114 | 99 | 101 | 3 | 64 | 90 | 74 | 90 | 2 | 104 | Cn1cc(/C=C2\C(=O)Nc3ccc(S(N)(=O)=O)cc32)c2ccccc21 |
| 92 | 19 | 35 | 84 | 99 | 101 | 87 | 20 | 65 | 90 | 77 | 92 | 1 | 109 | COc1ccc2c(c1)c(/C=C1\C(=O)Nc3ccc(S(N)(=O)=O)cc31)cn2C |
